Reference: patent US20240238300A1, “TREATMENT METHODS FOR SUBJECTS WITH CANCER HAVING AN ABERRATION IN EGFR AND/OR HER2” (TAIHO PHARMACEUTICAL CO., LTD., priority 2021, published 2024)

Tests used:
HER2 [1] = molecular target: T1, HER2 (Homo sapiens, UniProt P04626); experiment: in vitro kinase assay (enzyme assay); type: biochemical; conditions: human recombinant enzyme; read-out: IC50 (Mean ± SD)
Protocol: (§1) To investigate the inhibitory effect of Compound (1) on HER2 enzyme activity, the mean±standard deviation (SD) of half-maximal inhibitory concentration (IC50) values of Compound (1) against human recombinant enzymes of HER2 and its mutants were determined by in vitro kinase assays (Table 1).

HER2 A775_G776insYVMA = HER2 A775_G776insYVMA (Homo sapiens, UniProt P04626, INS775YVMA); experiment: in vitro kinase assay (enzyme assay); type: biochemical; conditions: human recombinant enzyme; read-out: IC50 (Mean ± SD)
Protocol: as §1

HER2 V777L = HER2 V777L (Homo sapiens, UniProt P04626, V777L); experiment: in vitro kinase assay (enzyme assay); type: biochemical; conditions: human recombinant enzyme; read-out: IC50 (Mean ± SD)
Protocol: as §1

BLK = BLK (Homo sapiens, UniProt P51451); experiment: panel enzyme assay of 257 kinases; type: biochemical; conditions: read-out: % Inhibition by Compound (1) at 1000 nmol/L
Protocol: (§2) To investigate further kinase selectivity of Compound (1), a panel enzyme assay of 257 kinases for Compound (1) was conducted.

BMX = BMX (Homo sapiens, UniProt P51813); experiment: panel enzyme assay of 257 kinases; type: biochemical; conditions: read-out: % Inhibition by Compound (1) at 1000 nmol/L
Protocol: as §2

BTK = BTK (Homo sapiens, UniProt Q06187); experiment: panel enzyme assay of 257 kinases; type: biochemical; conditions: read-out: % Inhibition by Compound (1) at 1000 nmol/L
Protocol: as §2

EGFR = EGFR (Homo sapiens, UniProt P00533); experiment: panel enzyme assay of 257 kinases; type: biochemical; conditions: read-out: % Inhibition by Compound (1) at 1000 nmol/L
Protocol: as §2

EPHA6 = EPHA6 (Homo sapiens, UniProt Q9UF33); experiment: panel enzyme assay of 257 kinases; type: biochemical; conditions: read-out: % Inhibition by Compound (1) at 1000 nmol/L
Protocol: as §2

FLT4 = FLT4 (Homo sapiens, UniProt P35916); experiment: panel enzyme assay of 257 kinases; type: biochemical; conditions: read-out: % Inhibition by Compound (1) at 1000 nmol/L
Protocol: as §2

HER2 [2] = molecular target: T1, HER2; experiment: panel enzyme assay of 257 kinases; type: biochemical; conditions: read-out: % Inhibition by Compound (1) at 1000 nmol/L
Protocol: as §2

HER4 = HER4 (Homo sapiens, UniProt Q15303); experiment: panel enzyme assay of 257 kinases; type: biochemical; conditions: read-out: % Inhibition by Compound (1) at 1000 nmol/L
Protocol: as §2

ITK = ITK (Homo sapiens, UniProt Q08881); experiment: panel enzyme assay of 257 kinases; type: biochemical; conditions: read-out: % Inhibition by Compound (1) at 1000 nmol/L
Protocol: as §2

JAK3 = JAK3 (Homo sapiens, UniProt P52333); experiment: panel enzyme assay of 257 kinases; type: biochemical; conditions: read-out: % Inhibition by Compound (1) at 1000 nmol/L
Protocol: as §2

TEC = TEC (Homo sapiens, UniProt P42680); experiment: panel enzyme assay of 257 kinases; type: biochemical; conditions: read-out: % Inhibition by Compound (1) at 1000 nmol/L
Protocol: as §2

TXK = TXK (Homo sapiens, UniProt P42681); experiment: panel enzyme assay of 257 kinases; type: biochemical; conditions: read-out: % Inhibition by Compound (1) at 1000 nmol/L
Protocol: as §2

[3] = test system: MCF10A_HER2/insYVMA_v human mammary epithelial xenografts; experiment: antitumor effect in nude mice bearing MCF10A_HER2/insYVMA_v xenografts; type: in vivo; conditions: for T/C ratio of the mean tumor volume: Day 15
Protocol: The antitumor effect of Compound (1) was evaluated in a nude mouse xenograft model of MCF10A_HER2/insYVMA_v. MCF10A_HER2/insYVMA_v was established as stably growing cells in vivo derived from MCF10A HER2/insYVMA (a human mammary epithelial cell line engineered to express the HER2 exon 20 insertion mutation A775_G776insYVMA) xenografts subcutaneously transplanted into nude mice. Compound (1) suspensions (using 0.5% w/v HPMC as vehicle) were administered orally once daily to mice at doses of 7.8, 12.5, or 20.0 mg/kg/day for 14 days. The control group received 0.5% weight per volume (w/v) hydroxypropyl methylcellulose (HPMC) solution orally once daily for 14 days.
In addition, the antitumor effect of poziotinib (an irreversible inhibitor of EGFR, HER2, and HER4) was also evaluated using this model.

human P-gp = molecular target: T2, human P-gp (Homo sapiens, UniProt P08183); experiment: inhibitory effect on human P-gp, bidirectional transport of [^3H]digoxin; type: in vitro ADME
T2 construct: expressed in transfected cells; host or cells: LLC-PK1 (porcine kidney) cells expressing human P-gp; mock/LLC-PK1 as control
Excerpt: Inhibitory effect of Compound (1) on human P-gp. […] The net flux ratios at the Compound (1) concentrations of 0.01, 0.1, 1, 5, 10, and 100 μmol/L were 5.6±1.0, 5.5±0.7, 6.5±0.5, 2.8±0.5, 1.3±0.2, and 1.0±0.1, respectively. The percent of controls at the Compound (1) concentrations at 0.01, 0.1, 1, 5, 10, and 100 μmol/L were 112%, 110%, 135%, 45%, 7%, and 1%, respectively.

[4] = test system: NCI-N87 xenografts relapsed from T-mab and P-mab; experiment: refractory T-mab/P-mab model Step II; type: in vivo; conditions: for RTV (mean ± SE): Day 15 to Day 1 (Step II); for BWC (mean ± SE): Day 15 vs Day 1 (Step II); for T/C: Step II Day 15, vs T-mab + P-mab group; for Number of Death / TV (mean ± SE): Step II Day 15
Protocol: Male nude mice (BALB/cAJcl-mu/mu) were implanted with NCI-N87 human gastric carcinoma (HER2 overexpressing); 1.0×10^7 cells in 100 μL of PBS were implanted subcutaneously per mouse.
The tumor volumes (TV, mm^3) and body weights of the mice were recorded.

[5] = test system: refractory T-DM1 NCI-N87 tumor fragment #6; experiment: refractory T-DM1 tumor fragment model, comparison to lapatinib and tucatinib; type: in vivo, male nude mice (BALB/cAJcl-nu/nu); conditions: for antitumor effect (tumor volume): 21 days
Protocol: Cancer Sci. 2020 June; 111(6):2123-2131. The NCI-N87 tumor fragment #6 obtained from the above procedure was then passaged two times into male nude mice (BALB/cAJcl-nu/nu) subcutaneously before the efficacy test of Compound (1).
The tumor volumes (TV, mnm^3) and body weights of the mice were recorded.

T2 sequence (P08183 whole entry): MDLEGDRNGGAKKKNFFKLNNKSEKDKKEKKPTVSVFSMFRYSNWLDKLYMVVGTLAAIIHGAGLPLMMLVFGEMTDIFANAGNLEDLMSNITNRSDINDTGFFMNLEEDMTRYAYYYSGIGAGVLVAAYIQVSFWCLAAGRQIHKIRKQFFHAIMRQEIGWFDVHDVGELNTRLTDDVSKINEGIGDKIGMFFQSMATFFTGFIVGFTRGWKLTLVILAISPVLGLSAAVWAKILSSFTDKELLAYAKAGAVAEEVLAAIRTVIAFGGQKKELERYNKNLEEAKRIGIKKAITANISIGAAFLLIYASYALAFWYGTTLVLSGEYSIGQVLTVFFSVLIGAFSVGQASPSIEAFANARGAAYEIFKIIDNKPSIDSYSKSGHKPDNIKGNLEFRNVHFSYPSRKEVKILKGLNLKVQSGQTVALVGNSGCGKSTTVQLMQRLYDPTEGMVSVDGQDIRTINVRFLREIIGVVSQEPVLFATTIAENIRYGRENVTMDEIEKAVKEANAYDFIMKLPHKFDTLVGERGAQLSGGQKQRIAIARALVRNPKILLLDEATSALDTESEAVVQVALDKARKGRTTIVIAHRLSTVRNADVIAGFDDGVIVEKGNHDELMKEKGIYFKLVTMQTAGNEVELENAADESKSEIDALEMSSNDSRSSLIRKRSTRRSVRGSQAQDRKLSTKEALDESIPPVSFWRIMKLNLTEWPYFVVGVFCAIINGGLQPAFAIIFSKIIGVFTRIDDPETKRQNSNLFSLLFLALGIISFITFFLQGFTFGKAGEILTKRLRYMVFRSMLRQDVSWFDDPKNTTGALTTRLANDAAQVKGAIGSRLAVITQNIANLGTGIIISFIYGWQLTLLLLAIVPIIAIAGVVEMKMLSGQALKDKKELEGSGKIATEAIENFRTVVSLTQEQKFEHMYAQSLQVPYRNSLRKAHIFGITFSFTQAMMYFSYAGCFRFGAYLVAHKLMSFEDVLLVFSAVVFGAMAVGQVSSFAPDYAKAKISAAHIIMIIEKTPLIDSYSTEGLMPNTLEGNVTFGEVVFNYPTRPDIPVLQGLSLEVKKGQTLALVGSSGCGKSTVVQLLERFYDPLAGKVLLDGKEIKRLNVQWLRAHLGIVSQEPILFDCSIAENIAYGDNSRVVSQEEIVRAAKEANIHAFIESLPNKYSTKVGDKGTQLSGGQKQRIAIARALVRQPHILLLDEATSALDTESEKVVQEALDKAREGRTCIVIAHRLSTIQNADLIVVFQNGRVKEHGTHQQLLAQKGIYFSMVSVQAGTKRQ
T1 sequence (P04626 23-1255): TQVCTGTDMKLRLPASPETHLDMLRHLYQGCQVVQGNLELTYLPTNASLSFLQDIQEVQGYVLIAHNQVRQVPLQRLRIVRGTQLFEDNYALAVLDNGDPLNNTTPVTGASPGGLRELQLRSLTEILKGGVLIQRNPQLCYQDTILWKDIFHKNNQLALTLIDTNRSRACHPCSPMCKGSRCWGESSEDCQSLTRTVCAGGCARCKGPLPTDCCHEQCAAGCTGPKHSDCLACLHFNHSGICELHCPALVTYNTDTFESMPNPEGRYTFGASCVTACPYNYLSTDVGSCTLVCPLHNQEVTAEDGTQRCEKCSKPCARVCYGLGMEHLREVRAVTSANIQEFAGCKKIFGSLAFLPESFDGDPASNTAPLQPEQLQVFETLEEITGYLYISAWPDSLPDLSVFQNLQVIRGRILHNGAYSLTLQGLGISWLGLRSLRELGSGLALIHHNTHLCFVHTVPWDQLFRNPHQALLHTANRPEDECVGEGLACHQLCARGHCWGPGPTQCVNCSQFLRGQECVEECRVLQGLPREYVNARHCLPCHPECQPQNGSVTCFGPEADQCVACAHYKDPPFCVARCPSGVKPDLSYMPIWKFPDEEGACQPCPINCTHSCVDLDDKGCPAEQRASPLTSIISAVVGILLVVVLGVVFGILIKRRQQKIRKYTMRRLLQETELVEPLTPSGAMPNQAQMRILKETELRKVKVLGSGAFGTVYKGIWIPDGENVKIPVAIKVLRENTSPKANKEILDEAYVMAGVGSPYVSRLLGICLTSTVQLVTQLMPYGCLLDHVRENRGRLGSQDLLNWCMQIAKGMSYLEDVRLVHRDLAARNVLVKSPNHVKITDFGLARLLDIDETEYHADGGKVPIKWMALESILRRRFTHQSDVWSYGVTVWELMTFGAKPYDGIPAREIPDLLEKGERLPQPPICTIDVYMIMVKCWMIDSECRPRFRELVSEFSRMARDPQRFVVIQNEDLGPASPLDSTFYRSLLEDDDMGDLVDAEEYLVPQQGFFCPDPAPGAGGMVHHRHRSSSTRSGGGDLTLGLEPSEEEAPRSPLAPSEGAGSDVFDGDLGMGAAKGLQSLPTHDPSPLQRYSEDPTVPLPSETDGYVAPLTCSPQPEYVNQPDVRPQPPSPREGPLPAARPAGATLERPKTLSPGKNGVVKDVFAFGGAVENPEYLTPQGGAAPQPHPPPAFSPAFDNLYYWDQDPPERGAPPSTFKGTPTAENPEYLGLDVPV
HER4, sequence (Q15303 26-1308, species assumed): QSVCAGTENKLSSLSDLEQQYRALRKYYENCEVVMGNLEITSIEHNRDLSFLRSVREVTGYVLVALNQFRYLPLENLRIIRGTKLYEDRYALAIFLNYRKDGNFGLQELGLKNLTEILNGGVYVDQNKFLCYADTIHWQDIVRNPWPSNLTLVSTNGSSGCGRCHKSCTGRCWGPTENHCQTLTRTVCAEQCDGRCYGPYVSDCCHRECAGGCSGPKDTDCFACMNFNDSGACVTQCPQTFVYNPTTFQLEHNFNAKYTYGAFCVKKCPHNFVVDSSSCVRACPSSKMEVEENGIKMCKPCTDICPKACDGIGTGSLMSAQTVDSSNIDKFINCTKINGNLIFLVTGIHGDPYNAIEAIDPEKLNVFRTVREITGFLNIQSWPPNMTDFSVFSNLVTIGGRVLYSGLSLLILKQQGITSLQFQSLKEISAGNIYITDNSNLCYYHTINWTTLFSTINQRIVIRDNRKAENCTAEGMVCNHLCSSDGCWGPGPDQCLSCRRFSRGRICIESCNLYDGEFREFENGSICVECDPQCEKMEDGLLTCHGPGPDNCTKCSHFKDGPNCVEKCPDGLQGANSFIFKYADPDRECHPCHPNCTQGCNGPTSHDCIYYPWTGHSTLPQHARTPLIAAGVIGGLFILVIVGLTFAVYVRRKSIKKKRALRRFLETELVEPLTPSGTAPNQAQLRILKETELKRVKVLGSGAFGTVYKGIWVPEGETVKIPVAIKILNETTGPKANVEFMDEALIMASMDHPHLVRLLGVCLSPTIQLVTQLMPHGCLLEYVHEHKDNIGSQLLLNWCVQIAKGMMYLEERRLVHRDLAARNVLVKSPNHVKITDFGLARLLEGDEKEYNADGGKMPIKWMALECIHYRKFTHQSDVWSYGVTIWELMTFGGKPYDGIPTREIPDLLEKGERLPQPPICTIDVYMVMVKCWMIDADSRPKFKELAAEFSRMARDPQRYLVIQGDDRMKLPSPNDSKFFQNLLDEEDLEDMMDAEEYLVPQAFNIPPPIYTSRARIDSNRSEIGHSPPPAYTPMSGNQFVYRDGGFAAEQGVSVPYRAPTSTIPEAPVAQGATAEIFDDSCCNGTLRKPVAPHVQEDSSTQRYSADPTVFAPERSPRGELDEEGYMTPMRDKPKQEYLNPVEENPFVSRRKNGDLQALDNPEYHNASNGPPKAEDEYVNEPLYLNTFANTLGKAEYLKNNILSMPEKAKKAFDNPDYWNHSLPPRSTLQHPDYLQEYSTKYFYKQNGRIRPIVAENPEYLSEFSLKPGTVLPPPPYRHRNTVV
HER2 A775_G776insYVMA, sequence (P04626 with tags, fused parts or gaps INS775YVMA limits assumed): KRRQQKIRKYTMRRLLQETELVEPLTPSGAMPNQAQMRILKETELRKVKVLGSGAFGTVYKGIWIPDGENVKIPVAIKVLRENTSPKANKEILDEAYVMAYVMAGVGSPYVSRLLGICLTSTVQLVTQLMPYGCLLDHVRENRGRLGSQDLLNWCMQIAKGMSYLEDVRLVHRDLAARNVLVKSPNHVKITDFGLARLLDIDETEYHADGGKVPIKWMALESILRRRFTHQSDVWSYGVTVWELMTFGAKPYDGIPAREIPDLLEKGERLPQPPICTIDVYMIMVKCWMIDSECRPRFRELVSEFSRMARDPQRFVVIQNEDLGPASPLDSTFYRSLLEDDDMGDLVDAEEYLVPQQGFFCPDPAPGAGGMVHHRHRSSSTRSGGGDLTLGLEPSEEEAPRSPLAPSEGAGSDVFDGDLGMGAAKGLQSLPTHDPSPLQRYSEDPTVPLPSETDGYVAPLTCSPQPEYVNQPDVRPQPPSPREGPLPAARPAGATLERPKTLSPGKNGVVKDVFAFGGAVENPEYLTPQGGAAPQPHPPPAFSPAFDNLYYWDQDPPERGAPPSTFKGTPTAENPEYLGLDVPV
BTK, sequence (Q06187 whole entry, species assumed): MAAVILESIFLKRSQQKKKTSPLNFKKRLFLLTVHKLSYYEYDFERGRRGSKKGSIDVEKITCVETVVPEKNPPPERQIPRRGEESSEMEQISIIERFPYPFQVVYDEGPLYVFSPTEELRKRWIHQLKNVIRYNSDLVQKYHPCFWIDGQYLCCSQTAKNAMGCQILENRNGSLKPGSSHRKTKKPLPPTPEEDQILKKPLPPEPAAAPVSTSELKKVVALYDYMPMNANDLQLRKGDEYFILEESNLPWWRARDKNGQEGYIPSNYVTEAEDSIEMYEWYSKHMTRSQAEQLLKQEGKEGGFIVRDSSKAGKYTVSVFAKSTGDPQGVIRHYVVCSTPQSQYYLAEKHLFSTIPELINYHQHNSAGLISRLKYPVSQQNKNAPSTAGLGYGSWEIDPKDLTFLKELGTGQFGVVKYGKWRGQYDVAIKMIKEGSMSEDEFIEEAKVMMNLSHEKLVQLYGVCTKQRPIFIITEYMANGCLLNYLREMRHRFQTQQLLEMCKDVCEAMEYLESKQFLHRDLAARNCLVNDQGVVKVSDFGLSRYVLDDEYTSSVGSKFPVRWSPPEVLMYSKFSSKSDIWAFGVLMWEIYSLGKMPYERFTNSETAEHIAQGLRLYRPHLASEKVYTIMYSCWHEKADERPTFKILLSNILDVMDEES

## C=CC(=O)N1C[C@H](n2c(C#CC3CC3)c(C(=O)N[C@H](C)c3ccccc3)c3c(N)ncnc32)C[C@@H]1C [Compound (1), 7-((3R,5S)-1-acryloyl-5-methylpyrrolidin-3-yl)-4-amino-6-(cyclopropylethynyl)-N—((R)-1-phenylethyl)-7H-pyrrolo[2,3-d]pyrimidine-5-carboxamide]
HER2 [1]
  IC50: 5.6 ± 0.3 nM
HER2 A775_G776insYVMA
  IC50: 1 ± 0.2 nM
HER2 V777L
  IC50: 2.1 ± 0.8 nM
BLK
  inhibition at 1 µM: 64.7%
BMX
  inhibition at 1 µM: 98.9%
BTK
  inhibition at 1 µM: 80%
EGFR
  inhibition at 1 µM: 98.3%
EPHA6
  inhibition at 1 µM: 72.9%
FLT4
  inhibition at 1 µM: 80.4%
HER2 [2]
  inhibition at 1 µM: 100%
HER4
  inhibition at 1 µM: 98.4%
ITK
  inhibition at 1 µM: 56.4%
JAK3
  inhibition at 1 µM: 99.2%
TEC
  inhibition at 1 µM: 81.7%
TXK
  inhibition at 1 µM: 89.4%
[3]; 7.8 mg/kg/day orally once daily 14 days
  T/C ratio of the mean tumor volume: 52.8%
[3]; 12.5 mg/kg/day orally once daily 14 days
  T/C ratio of the mean tumor volume: 17.4%
[3]; 20.0 mg/kg/day orally once daily 14 days
  T/C ratio of the mean tumor volume: 8.7%
[3]; 14 days treatment
  toxicity (deaths, clinical signs, body weight loss ≥20%): acceptable toxicity
Human P-gp
  IC50: 3480 nM
Human P-gp; human
  activity at 3 h, 0.01 μmol/L: 112%
  activity at 3 h, 0.1 μmol/L: 110%
  activity at 3 h, 1 μmol/L: 135%
  activity at 3 h, 5 μmol/L: 45%
  activity at 3 h, 10 μmol/L: 7%
  activity at 3 h, 100 μmol/L: 1%
[4]; 12.5 and 25 mg/kg/day
  body weight loss (tolerance): did not cause severe body weight loss
[4]; 12.5 mg/kg/day po Days 1-14
  RTV (mean ± SE): 1.2
  BWC (mean ± SE): −1.2%
  T/C: 52.5%
  Number of Death: 0
  TV (mean ± SE): 412.5 mm^3
[4]; 25 mg/kg/day po Days 1-14
  RTV (mean ± SE): 1.0
  BWC (mean ± SE): −4.4%
  T/C: 46.1%
  Number of Death: 0
  TV (mean ± SE): 362.4 mm^3
[5]; 12.5 mg/kg/day PO once per day
  antitumor effect (tumor volume): arresting tumor growth
[5]; 20 mg/kg/day PO once per day
  antitumor effect (tumor volume): inducing tumor regression
[5]; 12.5 and 20 mg/kg/day PO
  antitumor effect compared to lapatinib (50 mg/kg b.i.d.) or tucatinib (75 mg/kg b.i.d.): superior antitumor effects
[5]; 12.5 or 20 mg/kg
  body weight loss: did not cause body weight loss
